Entries after “also recorded” stand apart in the source; their conditions may differ. Read-outs that look alike come from different tables or passages of the source.
Experiments:
FGFR4-WT = FGFR4-WT (Homo sapiens (Human), UniProt P22455); assay: Omnia assay for potency assessment against FGFR4 enzyme; type: biochemical
Method: A 10× stock solution of FGFR4-WT (PR4380C), (from Invitrogen, Carlsbad, Calif.) corresponding to method a in Table 7, was prepared as described below. Alternatively, a 10× stock solution of FGFR4-WT (F01-11G), (SignalChem, Richmond, BC) corresponding to method b in Table 7, was prepared as described below. A solution of 1.4×ATP (AS001A) and 5× Tyr-Sox conjugated peptide substrate (KNZ3101) were prepared in 1× kinase reaction buffer consisting of 20 mM Tris, pH 7.5, 5 mM MgCl2, 1 mM EGTA, 5 mM β-glycerophosphate, 5% glycerol (10× stock, KB002A) and 0.2 mM DTT (DS001A). […] The serially diluted compounds were prepared on a Tecan EVO100. A second addition of 10 μl of Tyr-Sox FGFR4 substrate was added to each well and the kinase reactions were started with the addition of 35 μL of 1.4×ATP. The reactions were monitored every 71 seconds for 240 minutes at λex360/λem485 in a Synergy plate reader from BioTek (Winooski, Vt.).

[1] = biological target: FGFR4 in MDA-MB-453 cells (Homo sapiens, UniProt P22455); assay: Target occupancy assay with biotinylated covalent probe I-127; type: cell-based
Method: In order to assess free FGFR4 protein a biotinylated covalent probe was utilized. […] The reaction was incubated for 2 hr at room temperature. The samples and probe mixture were transferred to a FGFR4-coated MSD plate for 2 hr at room temperature. MSD signals were obtained with an anti-streptavidin Sulfo-tag (Meso Scale) antibody for 1 hr at room temperature. […] If a compound completely (100%) covalently modies FGFR4 no free FGFR4 should be available for covalent modification by the biotinylated probe and subsequent binding to streptavidin and detection.

[2] = biological target: pFGFR4 in MDA-MB-453 cells (Homo sapiens, UniProt P22455); assay: Washout experiment (pFGFR4 after compound removal); type: cell-based; settings: 1000-2000 nM for 1 hr, washed, followed up to 24 hr
Method: The cells were allowed to settle down for 4 hrs and were then maintained in low-serum (0.1% FBS) media overnight. The following morning, the media was removed and the cells were treated with 1000-2000 nM of test compound in low-serum media for 1 hr. The cells were washed free of test compound (3×) with PBS (Invitrogen). One set of cells was immediately lysed as indicated above as the 0 hr time point. The remaining cells were incubated with the appropriate complete growth media (10-20% FBS) for 1, 2, 4, 8, 16 (in certain circumstances) and 24 hr. DMSO (0.5%) controls were collected at all time points.

pFGFR4 in Huh7 cells = pFGFR4 in Huh7 cells (Homo sapiens (Human), UniProt P22455); assay: FGFR4 signaling, Meso Scale assay (MSD), Method B, Huh7
Method: Huh7 cells were grown in DMEM (Invitrogen, Carlsbad, Calif.) supplemented with 10% FBS (Invitrogen) and 1% Penicillin-Streptomycin (P/S, Lonza, Walkersville, Md.).
For the MSD and ELISA assays, total FGFR4 antibodies were obtained from R&D Systems (Minneapolis, Minn.) and used at 1:500. […] Phospho-FGFR antibodies were obtained from Cell Signaling (Danvers, Mass.) or R&D Systems and used at 1:1000. The phopho-FGFR antibody from Cell Signaling was used for immunoblotting, whereas the phopho-FGFR antibody from R&D was used for MSD and ELISA assays. Secondary antibodies were used at 1:10,000. The goat anti-mouse IgG IRDye 800CW antibody was obtained from LiCor Biosciences (Lincoln, Nebr.) and the goat anti-rabbit IgG Alexa Fluor 680 was obtained from Invitrogen. The anti-rabbit Sulfo-tag and anti-streptavidin Sulfo-tag antibodies was obtained from Meso Scale Discovery (Gaithersburg, Md.), and were used at 1:1000 and 1:5000, respectively.
After treatment, the cells were washed with cold PBS (Invitrogen), and were immediately lysed by freeze/thawing 3× in 32 μL of cold Cell Extraction Buffer (Invitrogen), which was supplemented with Complete Protease inhibitors (Roche) and PhosphoSTOP (Roche) phosphatase inhibitors.
MSD plates (Meso Scale Discovery) were coated with total FGFR-4 antibodies overnight at 4° C. A lysate (25 μL) was added to the MSD plate overnight at 4° C. The MSD signals were obtained by incubating with a phospho-FGFR antibody (R&D Systems) and an anti-rabbit sulfo-tag antibody (Meso Scale), for 2 hr at room temperature. […] The data was fitted using a sigmoidal curve analysis program (Graph Pad Prism version 5) with variable Hill slope to determine the EC50 values.

[3] = method b: [FGFR4-WT]=2.5 nM (SignalChem), [ATP]=250 uM, [Y10-Sox]=10 uM
[4] = method a: [FGFR4-WT]=10 nM (Invitrogen), [ATP]=300 uM, [Y10-Sox]=10 uM

FGFR4 in MDA-MB-453 cells, sequence (P22455 22-802 limits assumed): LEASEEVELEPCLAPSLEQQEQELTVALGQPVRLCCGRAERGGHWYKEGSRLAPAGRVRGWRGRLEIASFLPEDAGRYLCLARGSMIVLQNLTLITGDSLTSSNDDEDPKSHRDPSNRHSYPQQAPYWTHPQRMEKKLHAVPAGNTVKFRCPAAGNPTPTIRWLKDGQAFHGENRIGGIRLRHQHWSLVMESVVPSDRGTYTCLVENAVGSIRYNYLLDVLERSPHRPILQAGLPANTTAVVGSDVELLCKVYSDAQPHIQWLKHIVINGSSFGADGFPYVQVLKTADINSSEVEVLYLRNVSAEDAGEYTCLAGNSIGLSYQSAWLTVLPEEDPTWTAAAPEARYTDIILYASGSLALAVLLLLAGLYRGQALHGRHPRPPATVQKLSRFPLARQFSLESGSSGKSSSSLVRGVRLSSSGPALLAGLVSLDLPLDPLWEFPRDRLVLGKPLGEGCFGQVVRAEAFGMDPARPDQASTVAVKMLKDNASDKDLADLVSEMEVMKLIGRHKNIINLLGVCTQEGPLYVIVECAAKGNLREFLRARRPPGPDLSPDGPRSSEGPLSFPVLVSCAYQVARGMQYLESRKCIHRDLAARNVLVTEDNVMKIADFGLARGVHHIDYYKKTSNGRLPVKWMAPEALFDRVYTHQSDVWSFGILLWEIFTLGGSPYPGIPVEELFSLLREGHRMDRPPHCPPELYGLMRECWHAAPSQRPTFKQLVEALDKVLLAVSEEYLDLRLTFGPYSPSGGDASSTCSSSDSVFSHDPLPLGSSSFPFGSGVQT
pFGFR4 in Huh7 cells, sequence (P22455 22-802): as the sequence (P22455 22-802 limits assumed) above
pFGFR4 in MDA-MB-453 cells, sequence (P22455 22-802 limits assumed): as above
FGFR4-WT, sequence (P22455 22-802): as the sequence (P22455 22-802 limits assumed) above

Row | Compound | IC50 (FGFR4-WT; [4]) [nM] | EC50 (pFGFR4 in Huh7 cells) [nM] | further results
1 | CCC(=O)Nc1ccccc1Nc1ncc2c(n1)N(Cc1ccccc1)C(=O)N(c1c(Cl)c(OC)cc(OC)c1Cl)C2 [Compound I-236] |  |  | IC50 (FGFR4-WT; [3]): 101 to 500 nM; EC50 [1]: > 1000 nM
2 | C=CC(=O)NC1CCCCC1Nc1ncc2c(n1)N(Cc1cscn1)C(=O)N(c1c(Cl)c(OC)cc(OC)c1Cl)C2 (racemic) [Compound I-69] |  |  | duration of action against pFGFR4 signalling after washout [2]: prolonged inhibition of autophosphorylation of FGFR4; also recorded: prolonged duration of action
3 | C=CC(=O)NC1CCCCC1Nc1ncc2c(n1)N(Cc1cccnc1)C(=O)N(c1c(Cl)c(OC)cc(OC)c1Cl)C2 (racemic) [Compound I-35] |  |  | EC50 [1]: 101 to 500 nM
4 | C=CC(=O)Nc1ccccc1Nc1ncc2c(n1)N(Cc1cccc(F)c1)C(=O)N(c1c(Cl)c(OC)cc(OC)c1Cl)C2 [Compound I-12] |  |  | IC50 (FGFR4-WT; [3]): 101 to 500 nM; EC50 [1]: 101 to 500 nM
5 | C=CC(=O)Nc1ccccc1Nc1ncc2c(n1)N(C1CCCN(C(=O)OC(C)(C)C)C1)C(=O)N(c1cc(OC)cc(OC)c1)C2 (centres unmarked) [Compound I-36] | < 100 | 101 to 500 | 
6 | C=CC(=O)NC1CCCCC1Nc1ncc2c(n1)N(Cc1ccnc(N)c1)C(=O)N(c1c(Cl)c(OC)cc(OC)c1Cl)C2 (centres unmarked) [Compound I-133] | < 100 | < 100 | 
7 | CCC(=O)Nc1cccc(CN2C(=O)N(c3c(Cl)c(OC)cc(OC)c3Cl)Cc3cnc(Nc4ccccc4NC(=O)CC)nc32)c1 [Compound I-234] |  |  | IC50 (FGFR4-WT; [3]): 101 to 500 nM; EC50 [1]: > 1000 nM; duration of action against pFGFR4 signalling after washout [2]: does not show prolonged duration of action; also recorded: does not have PDA
8 | C=CC(=O)N(C)C1COCC1Nc1ncc2c(n1)N(C)C(=O)N(c1c(Cl)c(OC)cc(OC)c1Cl)C2 (centres unmarked) [Compound I-218] | > 1000 | > 1000 | 
9 | C=CC(=O)Nc1ccccc1Nc1ncc2cc(-c3c(Cl)c(OC)cc(OC)c3Cl)c(=O)n(C)c2n1 [Compound I-244] | < 100 | < 100 | 
10 | C=CC(=O)Nc1ccccc1Nc1ncc2c(n1)N(CCF)C(=O)N(c1cc(OC)cc(OC)c1)C2 [Compound I-102] | < 100 | < 100 | 
11 | C=CC(=O)NC1CS(=O)(=O)CC1Nc1ncc2c(n1)N(C)C(=O)N(c1c(Cl)c(OC)cc(OC)c1Cl)C2 (centres unmarked) [Compound I-200] | < 100 | 101 to 500 | 
12 | C=CC(=O)N[C@H]1CCCC[C@H]1Nc1ncc2cc(-c3c(Cl)c(OC)cc(OC)c3Cl)c(=O)n(C)c2n1 [Compound I-223] |  | < 100 | IC50 (FGFR4-WT): < 100 nM
13 | C=CC(=O)NC1COCC1Nc1ncc2c(n1)N(C)C(=O)N(c1c(Cl)c(OC)c(OC)c(OC)c1Cl)C2 (centres unmarked) [Compound I-208] | 501 to 999 | > 1000 | 
14 | C=CC(=O)NC1CCCCC1Nc1ncc2c(n1)N(CC(F)F)C(=O)N(c1c(F)c(OC)cc(OC)c1F)C2 (centres unmarked) [Compound I-115] | 101 to 500 | 101 to 500 | 
15 | C=CC(=O)Nc1ccccc1Nc1ncc2c(n1)N(C1COC1)C(=O)N(c1cc(OC)cc(OC)c1)C2 [Compound I-88] | < 100 | 101 to 500 | 
16 | C=CC(=O)Nc1ccccc1Nc1ncc2c(n1)N(CC#N)C(=O)N(c1cc(OC)cc(OC)c1)C2 [Compound I-48] | < 100 | 101 to 500 | 
17 | C=CC(=O)NC1CN(c2ccn(C)n2)CC1Nc1ncc2c(n1)N(C)C(=O)N(c1c(Cl)c(OC)cc(OC)c1Cl)C2 (centres unmarked) [Compound I-204] | < 100 | < 100 | 
18 | C=CC(=O)Nc1ccccc1Nc1ncc2c(n1)N(CCOC)C(=O)N(c1cc(OC)cc(OC)c1)C2 [Compound I-59] | < 100 | 101 to 500 | 
19 | C=CC(=O)Nc1ccccc1Nc1ncc2c(n1)N(Cc1ccccc1)C(=O)N(c1c(Cl)c(OC)cc(OC)c1Cl)C2 [Compound I-3] |  |  | IC50 (FGFR4-WT; [3]): < 100 nM; EC50 [1]: < 100 nM

Row | Compound | IC50 (FGFR4-WT; [4]) [nM] | EC50 (pFGFR4 in Huh7 cells) [nM] | further results
20 | C=CC(=O)Nc1ccccc1Nc1ncc2c(n1)N(C)C(=O)N(c1c(F)c(OC)cc(OC)c1F)C2 [Compound I-131] | < 100 | < 100 | 
21 | C=CC(=O)Nc1ccccc1Nc1ncc2c(n1)N(Cc1cccc(N)c1)C(=O)N(c1c(Cl)c(OC)cc(OC)c1Cl)C2 [Compound I-26] |  | < 100 | IC50 (FGFR4-WT; [3]): < 100 nM
22 | C=CC(=O)Nc1cc(C(F)(F)F)ccc1Nc1ncc2c(n1)N(C)C(=O)N(c1cc(OC)cc(OC)c1)C2 [Compound I-42] | < 100 | < 100 | 
23 | C=CC(=O)Nc1cc(N(C)CCOC)ccc1Nc1ncc2c(n1)N(C)C(=O)N(c1cc(OC)cc(OC)c1)C2 [Compound I-21] | < 100 | < 100 | 
24 | C=CC(=O)Nc1ccccc1Nc1ncc2c(n1)N(Cc1cn[nH]c1)C(=O)N(c1cc(OC)cc(OC)c1)C2 [Compound I-121] | < 100 | < 100 | 
25 | C=CC(=O)Nc1ccccc1Nc1ncc2c(n1)N(C1CCCNC1)C(=O)N(c1cc(OC)cc(OC)c1)C2 (centres unmarked) [Compound I-43] | < 100 | > 1000 | 
26 | C=CC(=O)NC1CCCCC1Nc1ncc2c(n1)N(Cc1ccccc1)C(=O)N(c1c(Cl)c(OC)cc(OC)c1Cl)C2 (racemic) [Compound I-63] |  |  | EC50 [1]: 101 to 500 nM
27 | C=CC(=O)NC1COCC1Nc1ncc2c(n1)N(C)C(=O)N(c1c(Cl)c(OC)cc(OC)c1Cl)C2 (centres unmarked) [Compound I-126] | < 100 | < 100 | 
28 | C=CC(=O)Nc1ccccc1Nc1ncc2c(n1)N(CC(F)F)C(=O)N(c1c(F)c(OC)cc(OC)c1F)C2 [Compound I-116] | < 100 | < 100 | 
29 | C=CC(=O)NC1CN(C2CCN(C)CC2)CC1Nc1ncc2c(n1)N(C)C(=O)N(c1c(Cl)c(OC)cc(OC)c1Cl)C2 (racemic) [Compound I-154] | 101 to 500 | > 1000 | 
30 | C=CC(=O)Nc1ccccc1Nc1ncc2c(n1)N(CC(F)F)C(=O)N(c1cc(OC)cc(OC)c1)C2 [Compound I-99] | < 100 | 101 to 500 | 
31 | C=CC(=O)Nc1ccccc1Nc1ncc2c(n1)N(Cc1cccc(C(N)=O)c1)C(=O)N(c1cc(OC)cc(OC)c1)C2 [Compound I-97] | < 100 | 101 to 500 | 
32 | C=CC(=O)Nc1cc(C(F)(F)F)ccc1Nc1ncc2c(n1)N(Cc1ccccc1)C(=O)N(c1c(Cl)c(OC)cc(OC)c1Cl)C2 [Compound I-6] |  | 101 to 500 | IC50 (FGFR4-WT; [3]): 501 to 999 nM
33 | C=CC(=O)N[C@H]1CCCC[C@H]1Nc1ncc2c(n1)N(C)C(=O)N(c1c(F)c(OC)cc(OC)c1F)C2 [Compound I-143] | < 100 | 101 to 500 | 
34 | C=CC(=O)NC1COCC1Nc1ncc2c(n1)N(Cc1ccn(C)n1)C(=O)N(c1c(Cl)c(OC)cc(OC)c1Cl)C2 (centres unmarked) [Compound I-215] | < 100 | < 100 | 
35 | C=CC(=O)Nc1ccccc1Nc1ncc2c(n1)NC(=O)N(c1cc(OC)cc(OC)c1)C2 [Compound I-125] | 101 to 500 | > 1000 | 
36 | C=CC(=O)NC1COCC1Nc1ncc2c(n1)N(CC)C(=O)N(c1c(Cl)c(OC)cc(OC)c1Cl)C2 (centres unmarked) [Compound I-217] | < 100 | < 100 | 
37 | C=CC(=O)Nc1cc(F)ccc1Nc1ncc2cc(-c3c(Cl)c(OC)cc(OC)c3Cl)c(=O)n(C)c2n1 [Compound I-245] | < 100 | < 100 | 
38 | C=CC(=O)NC1COCC1Nc1ncc2c(n1)N(Cc1cc[nH]n1)C(=O)N(c1c(Cl)c(OC)cc(OC)c1Cl)C2 (centres unmarked) [Compound I-216] | < 100 | 101 to 500 | 

From patent publication US9695132B2, “Heteroaryl compounds and uses thereof” (Celgene CAR LLC, priority 2013, dated 2017)
